Experimental data taken from patent publication US7713994B2 (Wyeth LLC, priority 2005, dated 2010).
Like-named read-outs stand apart in the source and are kept apart here.

Key:
HCT-116 = assay: Cytotoxicity assay (SRB), HCT-116; type: cell-based; details: HCT116 cells, SRB, read-out: In Vitro Cellular Activity IC50 HCT116
Method in brief: (§1)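 Cells grown in RPMI 1640 with 5% FBS were treated with compound for three days (HCT-116, LoVo, MCF-7) or six days (BT474). Viable cell mass was quantified by sulforhodamine B staining of TCA-fixed protein and read at 540 nm.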

BT474 = assay: Cytotoxicity assay (SRB), BT474; type: cell-based
Method in brief: as §1

MCF-7 = assay: Cytotoxicity assay (SRB), MCF-7; type: cell-based; details: MCF-7 cells, SRB, read-out: In Vitro Cellular Activity IC50 MCF-7
Method in brief: as §1

cyclin E/CDK2 enzyme = biological target: T1, cyclin E/CDK2 enzyme (Homo sapiens, UniProt P24941); assay: CDK2 ELISA kinase assay (phospho-Rb ser 795 detection); type: biochemical
T1 construct: made in house; host or cells: Sf9 insect cells, recombinant baculovirus
Method in brief: (§2)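 GST-Rb C-terminal fragment coated on wells; kinase reaction: 200 μM ATP, 0.5 mg/ml BSA, HEPES pH 7.5, 10 mM MgCl2, baculovirus/Sf9 cyclin-CDK, 30° C, 1 h. Readout anti-phospho-Rb Ser795, HRP, TMB, A450. Test compound 10 ug/ml final.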

cyclin D1/cdk 4 enzyme = biological target: T2, cyclin D1/cdk 4 enzyme (Homo sapiens, UniProt P11802); assay: CDK4 ELISA kinase assay (phospho-Rb ser 795 detection); type: biochemical
T2 construct: made in house; host or cells: Sf9 insect cells, recombinant baculovirus
Method in brief: as §2

cyclin B/CDK1 enzyme = biological target: T3, cyclin B/CDK1 enzyme (Homo sapiens, UniProt P06493); assay: CDK1 ELISA kinase assay (phospho-Rb ser 795 detection); type: biochemical
T3 construct: purchased New England BioLabs; host or cells: Sf9 insect cells, recombinant baculovirus
Method in brief: as §2

LoVo = assay: Cytotoxicity assay (SRB), LoVo; type: cell-based; details: LoVo cells, SRB, read-out: In Vitro Cellular Activity IC50 LOVO
Method in brief: as §1

[1] = Homo sapiens, HCT-116, 72 h, three days
[2] = Homo sapiens, BT-474, 144 h, BT474 cells, SRB, 6 days; read-out: In Vitro Cellular Activity IC50 BT474
[3] = Homo sapiens, MCF7, 72 h, three days
[4] = In Vitro Enzyme Assays, read-out: CDK2 IC50
[5] = In Vitro Enzyme Assays, 200 μM ATP, read-out: CDK4 IC50
[6] = In Vitro Enzyme Assays, read-out: CDK1 IC50
[7] = Homo sapiens, LoVo, 72 h, three days
[8] = Homo sapiens, HCT-116, 72 h, 3 days
[9] = Homo sapiens, BT-474, 144 h, BT474 cells, 6 days, SRB; read-out: In Vitro Cellular Activity IC50 BT474
[10] = Homo sapiens, MCF7, 72 h, 3 days
[11] = In Vitro Enzyme Assay, cyclin E/CDK2, read-out: CDK2 IC50
[12] = In Vitro Enzyme Assay, cyclin D1/cdk 4, read-out: CDK4 IC50
[13] = In Vitro Enzyme Assay, cyclin B/CDK1, read-out: CDK1 IC50
[14] = Homo sapiens, LoVo, 72 h, 3 days

T2 sequence (P11802 whole entry, species assumed): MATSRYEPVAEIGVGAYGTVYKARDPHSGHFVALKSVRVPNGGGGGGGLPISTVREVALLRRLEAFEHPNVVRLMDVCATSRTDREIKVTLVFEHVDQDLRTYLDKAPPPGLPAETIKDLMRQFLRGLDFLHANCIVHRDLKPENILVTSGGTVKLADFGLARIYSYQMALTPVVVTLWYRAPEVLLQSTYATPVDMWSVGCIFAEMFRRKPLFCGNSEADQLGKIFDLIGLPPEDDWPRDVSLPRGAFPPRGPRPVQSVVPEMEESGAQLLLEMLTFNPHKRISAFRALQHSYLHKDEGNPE
T2 sequence (P24385 whole entry partner, species assumed): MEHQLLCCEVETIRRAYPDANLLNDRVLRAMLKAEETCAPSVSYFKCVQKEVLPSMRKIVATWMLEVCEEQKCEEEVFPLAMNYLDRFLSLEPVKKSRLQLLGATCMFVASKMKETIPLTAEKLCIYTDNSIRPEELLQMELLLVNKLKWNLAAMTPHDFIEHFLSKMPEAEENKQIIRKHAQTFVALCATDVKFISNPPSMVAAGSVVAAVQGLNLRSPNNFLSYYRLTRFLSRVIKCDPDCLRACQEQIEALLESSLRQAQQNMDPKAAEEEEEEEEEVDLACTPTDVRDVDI
T3 sequence (P06493 whole entry): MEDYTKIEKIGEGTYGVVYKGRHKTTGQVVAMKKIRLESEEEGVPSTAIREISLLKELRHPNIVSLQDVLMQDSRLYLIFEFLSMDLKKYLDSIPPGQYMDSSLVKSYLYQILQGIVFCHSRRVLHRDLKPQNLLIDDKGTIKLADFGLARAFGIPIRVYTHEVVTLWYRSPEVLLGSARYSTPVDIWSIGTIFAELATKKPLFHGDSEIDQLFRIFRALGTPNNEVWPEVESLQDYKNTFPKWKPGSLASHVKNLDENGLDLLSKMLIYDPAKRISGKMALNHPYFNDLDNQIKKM
T3 sequence (P14635 whole entry partner): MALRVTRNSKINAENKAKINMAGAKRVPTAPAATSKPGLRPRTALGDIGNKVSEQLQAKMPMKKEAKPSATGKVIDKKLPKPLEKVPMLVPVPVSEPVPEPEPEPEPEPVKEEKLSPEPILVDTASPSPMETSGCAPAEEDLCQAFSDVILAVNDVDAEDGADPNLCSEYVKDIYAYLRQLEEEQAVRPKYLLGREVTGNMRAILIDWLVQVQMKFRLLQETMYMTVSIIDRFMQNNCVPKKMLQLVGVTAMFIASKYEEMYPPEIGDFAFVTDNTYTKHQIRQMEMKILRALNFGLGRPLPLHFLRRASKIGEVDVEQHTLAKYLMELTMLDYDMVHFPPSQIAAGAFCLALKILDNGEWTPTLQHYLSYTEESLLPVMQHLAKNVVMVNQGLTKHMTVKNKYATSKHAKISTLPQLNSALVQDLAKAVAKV

Row | Compound | IC50 (cyclin E/CDK2 enzyme; [4]) [µM] | IC50 (cyclin D1/cdk 4 enzyme; [5]) [µM] | IC50 (cyclin B/CDK1 enzyme; [6]) [µM] | IC50 (HCT-116; [8]) [µM] | IC50 (BT474; [9]) [µM] | IC50 (MCF-7; [10]) [µM] | IC50 (cyclin E/CDK2 enzyme; [11]) [µM] | IC50 (cyclin D1/cdk 4 enzyme; [12]) [µM] | IC50 (cyclin B/CDK1 enzyme; [13]) [µM] | IC50 (LoVo; [14]) [µM] | also measured
1 | O=C1NC(=O)c2ccc(-c3ccsc3)cc2/C1=C/NCc1ccc(OC(F)F)c(O)c1 [Example 200, (4Z)-4-({[4-(Difluoromethoxy)-3-hydroxybenzyl]amino}methylene)-6-thien-3-ylisoquinoline-1,3(2H,4H)-dione] | 26.5 | 0.009 | > 50 | – | – | – | – | – | – | – | IC50 (HCT-116; [1]): 5.4 µM; IC50 (BT474; [2]): 9.3 µM; IC50 (MCF-7; [3]): 7.2 µM; IC50 (LoVo; [7]): 4.7 µM
2 | COc1ccc(CN(C)/C=C2\C(=O)NC(=O)c3ccc(Br)cc32)cc1O [Example 163, (4Z)-6-Bromo-4-{[(3-hydroxy-4-methoxybenzyl)(methyl)amino]methylene}isoquinoline-1,3(2H,4H)-dione] | 44.4 | > 50 | > 50 | – | – | – | – | – | – | – | IC50 (HCT-116; [1]): 38 µM; IC50 (BT474; [2]): 38 µM; IC50 (MCF-7; [3]): 38 µM; IC50 (LoVo; [7]): 34 µM
3 | O=C1NC(=O)c2ccc(I)cc2/C1=C/NCc1ccc(-c2ccccc2)c(O)c1 [Example 490, 4-{[(2-Hydroxy-biphenyl-4-ylmethyl)-amino]-methylene}-6-iodo-4H-isoquinoline-1,3-dione] | – | – | – | 0.42 | 0.26 | 0.88 | 15.1 | 0.13 | 47.8 | 0.34 | –
4 | O=C1NC(=O)c2ccc(Br)cc2/C1=C/NCCCN1CCCC1 [Example 309, (Z)-6-Bromo-4-((3-(pyrrolidin-1-yl)propylamino)methylene)isoquinoline-1,3(2H,4H)-dione] | > 50 | 14.7 | > 50 | – | – | – | – | – | – | – | IC50 (HCT-116; [1]): 26 µM; IC50 (BT474; [2]): 26 µM; IC50 (MCF-7; [3]): 20 µM; IC50 (LoVo; [7]): 15 µM
5 | CC1CN(C)[C@H](C)CN1c1ccc(N/C=C2\C(=O)NC(=O)c3ccc(I)cc32)cc1 (stereo in doubt) [Example 233, (4Z)-6-Iodo-4-[({4-[(2S,5R)-2,4,5-trimethylpiperazin-1-yl]phenyl}amino)methylene]-isoquinoline-1,3(2H,4H)-dione] | > 50 | 3 | > 50 | – | – | – | – | – | – | – | IC50 (HCT-116; [1]): 5 µM; IC50 (BT474; [2]): 6.9 µM; IC50 (MCF-7; [3]): 1 µM; IC50 (LoVo; [7]): 4.4 µM
6 | 6-Bromo-4-[(4-pyrrolidin-1-ylmethyl-phenylamino)-methylene]-1,4-dihydro-2H-isoquinolin-3-one & 8-Bromo-4-[(4-pyrrolidin-1-ylmethyl-phenylamino)-methylene]-1,4-dihydro-2H-isoquinolin-3-one [Example 846] | – | – | – | – | – | – | > 50 | 2.5 | > 50 | – | IC50 (HCT-116; 3 days): 2.6 µM; IC50 (BT474; BT474 cells, 6 days, SRB; read-out: In Vitro Cellular Activity IC50 BT474): 10.7 µM; IC50 (MCF-7; 3 days): 4.9 µM; IC50 (LoVo; 3 days): 4.8 µM
7 | CSc1ccc(-c2ccc3c(c2)C(=CNCc2ccc(O)c(O)c2)C(=O)NC3=O)cc1 [Example 792, 4-[(3,4-Dihydroxy-benzylamino)-methylene]-6-(4-methylsulfanyl-phenyl)-4H-isoquinoline-1,3-dione] | – | – | – | 14.7 | 41 | 13.1 | 22.6 | 0.47 | > 50 | 15.6 | –
8 | O=C1NC(=O)c2ccc(-c3cccc(C(=O)O)c3)cc2C1=CNCc1ccc(O)c(O)c1 [Example 771, 3-{4-[(3,4-Dihydroxy-benzylamino)-methylene]-1,3-dioxo-1,2,3,4-tetrahydro-isoquinolin-6-yl}-benzoic acid] | – | – | – | 39.5 | 33.3 | > 50 | 10 | 0.82 | 26.5 | 48 | –
9 | CN(C)C/C=C/C(=O)N1CCCC1c1ccc(N/C=C2\C(=O)NC(=O)c3ccc(I)cc32)cc1 (centres unmarked) [Example 402, 4-({4-[1-(4-Dimethylamino-but-2-enoyl)-pyrrolidin-2-yl]-phenylamino}-methylene)-6-iodo-4H-isoquinoline-1,3-dione] | > 50 | 2.9 | > 50 | 4 | 7.1 | 7.6 | – | – | – | 6 | –
10 | CC1(C)Oc2cc(CN/C=C3\C(=O)NC(=O)c4ccc(Br)cc43)cc(OC(=O)C3CC3)c2O1 [Example 873, 6-({[(Z)-(6-Bromo-1,3-dioxo-2,3-dihydroisoquinolin-4(1H)-ylidene)methyl]amino}methyl)-2,2-dimethyl-1,3-benzodioxol-4-yl cyclopropanecarboxylate] | – | – | – | 24.5 | 42.7 | 29.2 | – | – | – | 41.1 | IC50 (cyclin E/CDK2 enzyme; In Vitro Enzyme Assay, read-out: CDK2 IC50): 24.7 µM; IC50 (cyclin D1/cdk 4 enzyme; In Vitro Enzyme Assay, read-out: CDK4 IC50): > 50 µM; IC50 (cyclin B/CDK1 enzyme; In Vitro Enzyme Assay, read-out: CDK1 IC50): 1.9 µM
11 | CON(C)C(=O)C1CCN(c2ccc(N/C=C3\C(=O)NC(=O)c4ccc(I)cc43)cc2)CC1 [Example 432, 1-(4-{[(Z)-(6-Iodo-1,3-dioxo-2,3-dihydroisoquinolin-4(1H)-ylidene)methyl]amino}phenyl)-N-methoxy-N-methylpiperidine-4-carboxamide] | > 50 | 6.5 | > 50 | 11.1 | 9.3 | 24.2 | – | – | – | 8.5 | –
12 | CN(C)CCNCC1CCN(c2ccc(N/C=C3\C(=O)NC(=O)c4ccc(I)cc43)cc2)CC1 [Example 446, (4Z)-4-[({4-[4-({[2-(Dimethylamino)ethyl]amino}methyl)piperidin-1-yl]phenyl}amino)methylene]-6-iodoisoquinoline-1,3(2H,4H)-dione] | > 50 | 0.28 | > 50 | 1.7 | 3.4 | 3 | – | – | – | 2.9 | –
13 | O=C1NC(=O)c2ccc(C=Cc3ccccn3)cc2C1=CNCc1ccc(O)c(O)c1 [Example 662, 4-[(3,4-Dihydroxy-benzylamino)-methylene]-6-(2-pyridin-2-yl-vinyl)-4H-isoquinoline-1,3-dione] | – | – | – | > 50 | 35.8 | 30.6 | > 50 | 0.17 | > 50 | > 50 | –
14 | O=C1NC(=O)c2ccc(Br)cc2/C1=C/NCc1ccc(NC(=O)C(Cl)Cl)c(O)c1 [Example 320, N-[4-({[(Z)-(6-Bromo-1,3-dioxo-2,3-dihydroisoquinolin-4(1H)-ylidene)methyl]amino}methyl)-2-hydroxyphenyl]-2,2-dichloroacetamide] | 4 | 0.12 | 6.8 | – | – | – | – | – | – | – | IC50 (HCT-116; [1]): 2.1 µM; IC50 (BT474; [2]): 2 µM; IC50 (MCF-7; [3]): 4.9 µM; IC50 (LoVo; [7]): 4.5 µM
15 | O=C1NC(=O)c2ccccc2C1=CNCc1ccc(NS(=O)(=O)CC(F)(F)F)cc1 [Example 591, 2,2,2-Trifluoro-ethanesulfonic acid (4{[(1,3-dioxo-2,3-dihydro-1H-isoquinolin-4-ylidenemethyl)-amino]-methyl}-phenyl)-amide] | – | – | – | 41.5 | 36.4 | 40 | 25.4 | 23.2 | 20.3 | > 50 | –
16 | CC(=O)c1cccc(-c2ccc3c(c2)C(=CNCc2ccc(O)c(O)c2)C(=O)NC3=O)c1 [Example 776, 6-(3-Acetyl-phenyl)-4-[(3,4-dihydroxy-benzylamino)-methylene]-4H-isoquinoline-1,3-dione] | – | – | – | 15.2 | 17.2 | 11.2 | 13.8 | 0.24 | > 50 | 10.3 | –
17 | O=C1NC(=O)c2ccc(C3CCCC3)cc2/C1=C/NCc1ccc(-c2ccoc2)c(O)c1 [Example 536, 6-Cyclopentyl-4-[(4-furan-3-yl-3-hydroxy-benzylamino)-methylene]-4H-isoquinoline-1,3-dione] | – | – | – | 1.1 | 0.43 | 2.1 | 3.1 | 0.02 | > 50 | 0.51 | –
